Experimental findings from patent US12673975B2, “Cyclic peptide, cell scaffold material, cell separating material, and medium” (FUJIFILM Corporation, priority 2019, dated 2026) are described below.

Starred links: 1 amine or outer side, 2 acyl side, 3 side chain; linkers in the order of their positions; H or OH if unused. Positions of bridges follow the written chain, without caps; N, C: chain ends. Non-standard residues stand in square brackets, D forms with d. Residues, ends and D or L forms follow the SMILES beside them. hCys = N[C@@H](CCS)C(=O)O; Dab = NCC[C@H](N)C(=O)O; X2 = O=C(C[*:1])[*:2]

The nature of series [1]: Evaluation of molecule stability (alkali treatment, residual rate by LC/MS). The settings on record: 500 μM peptide aqueous solution plus equivalent of 1 M sodium hydroxide, 15° C., 3 hours, LC/MS peak area. Type of series: physicochemical. In short, it runs like this:
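Stability read as percent of summed LC/MS peak area remaining versus untreated peptide (C18, 45 °C, 10 mM ammonium formate pH 3, ESI positive/negative). Treatment: 500 μM peptide in water plus an equivalent of 1 M NaOH, 15 °C for 3 hours.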

Series [2] has as its target human integrin αvβ5 (Homo sapiens, UniProt P06756+P18084). In words: Evaluation of integrin binding property (surface plasmon resonance, Biacore 3000, immobilized cyclic peptide). The settings on record: SPR, 25° C., HEPES buffer with 5 mM magnesium chloride, integrin 30-1,000 nM; read-out: Performance evaluation: Binding activity (dissociation constant between the cyclic peptide and human integrin αvβ5). The essentials:
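Human αvβ5 (30-1,000 nM) flowed for 10 min at 25 °C over immobilized cyclic peptide in 20 mM HEPES, 150 mM NaCl, 5 mM MgCl2, pH 7.4, followed by 30 min running buffer and 0.5 M EDTA regeneration. Dissociation constant from peptide minus unimmobilized channel, scored into standard grades.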
(In general: SPR reads the build-up and loss of mass on a sensor chip optically.)

Sequence of human integrin αvβ5 (P06756 31-1048): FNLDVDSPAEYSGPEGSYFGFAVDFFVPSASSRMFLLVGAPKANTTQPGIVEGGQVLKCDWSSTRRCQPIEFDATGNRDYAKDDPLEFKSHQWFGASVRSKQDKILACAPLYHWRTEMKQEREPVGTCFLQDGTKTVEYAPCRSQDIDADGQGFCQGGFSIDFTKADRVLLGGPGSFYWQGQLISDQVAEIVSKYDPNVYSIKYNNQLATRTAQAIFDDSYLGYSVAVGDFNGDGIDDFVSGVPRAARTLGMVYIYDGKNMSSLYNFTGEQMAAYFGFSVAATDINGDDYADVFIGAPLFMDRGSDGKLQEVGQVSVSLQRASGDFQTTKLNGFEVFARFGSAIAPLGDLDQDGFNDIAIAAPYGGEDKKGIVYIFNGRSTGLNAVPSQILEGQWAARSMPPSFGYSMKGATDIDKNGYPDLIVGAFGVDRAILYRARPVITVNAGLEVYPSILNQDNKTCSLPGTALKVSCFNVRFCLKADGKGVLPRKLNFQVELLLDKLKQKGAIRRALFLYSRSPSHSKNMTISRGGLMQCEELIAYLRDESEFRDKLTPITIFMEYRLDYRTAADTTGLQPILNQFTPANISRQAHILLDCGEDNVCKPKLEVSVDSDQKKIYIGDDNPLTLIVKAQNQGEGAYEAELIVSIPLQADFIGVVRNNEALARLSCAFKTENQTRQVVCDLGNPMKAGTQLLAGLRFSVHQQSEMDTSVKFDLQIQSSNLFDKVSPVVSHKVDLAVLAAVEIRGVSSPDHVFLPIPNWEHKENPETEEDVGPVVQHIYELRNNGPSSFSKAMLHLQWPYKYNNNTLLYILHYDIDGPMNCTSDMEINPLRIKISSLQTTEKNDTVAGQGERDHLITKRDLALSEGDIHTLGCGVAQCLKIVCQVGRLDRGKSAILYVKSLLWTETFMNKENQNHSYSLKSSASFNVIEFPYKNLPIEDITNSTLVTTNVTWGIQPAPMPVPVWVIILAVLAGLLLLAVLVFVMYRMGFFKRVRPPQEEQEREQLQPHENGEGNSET
Sequence of human integrin αvβ5 (P18084 24-799): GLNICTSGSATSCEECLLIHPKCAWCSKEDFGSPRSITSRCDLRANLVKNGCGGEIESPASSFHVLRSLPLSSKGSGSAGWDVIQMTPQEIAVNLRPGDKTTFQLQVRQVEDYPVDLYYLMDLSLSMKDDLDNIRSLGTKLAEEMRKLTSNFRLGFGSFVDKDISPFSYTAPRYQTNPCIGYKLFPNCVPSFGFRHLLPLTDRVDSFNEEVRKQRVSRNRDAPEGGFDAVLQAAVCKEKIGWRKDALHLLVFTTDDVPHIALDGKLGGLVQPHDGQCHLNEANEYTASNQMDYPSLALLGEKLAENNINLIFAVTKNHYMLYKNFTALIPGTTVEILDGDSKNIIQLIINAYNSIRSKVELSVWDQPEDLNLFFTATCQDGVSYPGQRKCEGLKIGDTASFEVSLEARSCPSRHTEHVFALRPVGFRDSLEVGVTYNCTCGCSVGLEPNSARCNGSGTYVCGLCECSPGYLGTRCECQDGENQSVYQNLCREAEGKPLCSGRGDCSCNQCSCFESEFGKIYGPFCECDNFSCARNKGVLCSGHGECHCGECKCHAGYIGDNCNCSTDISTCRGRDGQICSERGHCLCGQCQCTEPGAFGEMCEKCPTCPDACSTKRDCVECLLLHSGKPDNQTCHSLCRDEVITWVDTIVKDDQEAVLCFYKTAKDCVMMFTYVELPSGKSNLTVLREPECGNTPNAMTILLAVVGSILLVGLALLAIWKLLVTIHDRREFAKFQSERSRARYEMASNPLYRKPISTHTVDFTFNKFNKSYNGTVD

For `CC(C)C[C@@H]1NC(=O)[C@@H](NC(=O)[C@H](C)NC(=O)[C@H](CCCCN)NC(=O)[C@H](CCCCN)NC(=O)[C@@H](N)CCCCN)CCSCC(=O)NCC[C@@H](C(=O)N[C@@H](CC(=O)O)C(=O)O)NC(=O)[C@H](CCCNC(=N)N)NC(=O)[C@H](Cc2ccc(O)cc2)NC(=O)[C@H](CC(N)=O)NC(=O)[C@H](CC(=O)O)NC(=O)CNC(=O)[C@H](CCCNC(=N)N)NC(=O)[C@@H]2CCCN2C1=O` [Cyclic peptide 31, KKKA-(Hcy)-LPRGDNYR(Dab(acetyl))D] (H-KKKA[hCys]LPRGDNYR[Dab]D-OH; linker 5-14 via X2), the “Performance evaluation: Stability (residual rate of cyclic peptide after alkali treatment)” value in series [1] is recorded as “A (The residual rate of the cyclic peptide is 70% or more.)”. Moreover, the Kd in series [2] was below 50 nM.

Take `C[C@H](NC(=O)[C@H](CCCCN)NC(=O)[C@H](CCCCN)NC(=O)[C@@H](N)CCCCN)C(=O)N[C@H]1CCSCC(=O)NCC[C@@H](C(=O)N[C@@H](CC(=O)O)C(=O)O)NC(=O)[C@H](CCCNC(=N)N)NC(=O)[C@H](Cc2ccc(O)cc2)NC(=O)[C@H](CC(N)=O)NC(=O)[C@H](CC(=O)O)NC(=O)CNC(=O)[C@H](CCCNC(=N)N)NC(=O)[C@@H]2CCCN2C(=O)[C@H](Cc2ccc(O)cc2)NC1=O` [Cyclic peptide 32, KKKA-(Hcy)-YPRGDNYR(Dab(acetyl))D] (H-KKKA[hCys]YPRGDNYR[Dab]D-OH; linker 5-14 via X2): in series [1], the “Performance evaluation: Stability (residual rate of cyclic peptide after alkali treatment)” value is “A (The residual rate of the cyclic peptide is 70% or more.)”. For the same molecule, the Kd in series [2] was below 50 nM.

As for `C[C@H](NC(=O)[C@H](CCCCN)NC(=O)[C@H](CCCCN)NC(=O)[C@@H](N)CCCCN)C(=O)N[C@H]1CCSCC(=O)NCC[C@@H](C(=O)N[C@@H](CC(=O)O)C(=O)O)NC(=O)[C@H](CCCNC(=N)N)NC(=O)[C@H](Cc2ccc(O)cc2)NC(=O)[C@H](CO)NC(=O)[C@H](CC(=O)O)NC(=O)CNC(=O)[C@H](CCCNC(=N)N)NC(=O)[C@@H]2CCCN2C(=O)[C@H](CCC(=O)O)NC1=O` [Cyclic peptide 33, KKKA-(Hcy)-EPRGDSYR(Dab(acetyl))D] (H-KKKA[hCys]EPRGDSYR[Dab]D-OH; linker 5-14 via X2), the “Performance evaluation: Stability (residual rate of cyclic peptide after alkali treatment)” value in series [1] is listed as “A (The residual rate of the cyclic peptide is 70% or more.)”. For the same molecule, the Kd in series [2] lay within 100 to 200 nM.

As for `C[C@H](NC(=O)[C@H](CCCCN)NC(=O)[C@H](CCCCN)NC(=O)[C@@H](N)CCCCN)C(=O)N[C@H]1CCSCC(=O)NCC[C@@H](C(=O)N[C@@H](CC(=O)O)C(=O)O)NC(=O)[C@H](CCCNC(=N)N)NC(=O)[C@H](Cc2ccccc2)NC(=O)[C@H](CC(N)=O)NC(=O)[C@H](CC(=O)O)NC(=O)CNC(=O)[C@H](CCCNC(=N)N)NC(=O)[C@@H]2CCCN2C(=O)[C@H](CCC(=O)O)NC1=O` [Cyclic peptide 34, KKKA-(Hcy)-EPRGDNFR(Dab(acetyl))D] (H-KKKA[hCys]EPRGDNFR[Dab]D-OH; linker 5-14 via X2), the “Performance evaluation: Stability (residual rate of cyclic peptide after alkali treatment)” value in series [1] was “A (The residual rate of the cyclic peptide is 70% or more.)”. In addition, the Kd in series [2] is below 50 nM.

On to `C[C@H](NC(=O)[C@H](CCCCN)NC(=O)[C@H](CCCCN)NC(=O)[C@@H](N)CCCCN)C(=O)N[C@H]1CCSCC(=O)NCC[C@@H](C(=O)N[C@@H](CC(=O)O)C(=O)O)NC(=O)[C@H](CC(=O)O)NC(=O)[C@H](Cc2ccc(O)cc2)NC(=O)[C@H](CC(N)=O)NC(=O)[C@H](CC(=O)O)NC(=O)CNC(=O)[C@H](CCCNC(=N)N)NC(=O)[C@@H]2CCCN2C(=O)[C@H](CCC(=O)O)NC1=O` [Cyclic peptide 35, KKKA-(Hcy)-EPRGDNYD(Dab(acetyl))D] (H-KKKA[hCys]EPRGDNYD[Dab]D-OH; linker 5-14 via X2), for which, in series [1], the “Performance evaluation: Stability (residual rate of cyclic peptide after alkali treatment)” value is recorded as “A (The residual rate of the cyclic peptide is 70% or more.)”. The Kd in series [2] was 100 to 200 nM.

As to `C[C@H](NC(=O)[C@H](CCCCN)NC(=O)[C@H](CCCCN)NC(=O)[C@@H](N)CCCCN)C(=O)N[C@H]1CCSCC(=O)NCC[C@@H](C(=O)N[C@@H](CC(=O)O)C(=O)O)NC(=O)[C@H](CCC(=O)O)NC(=O)[C@H](Cc2ccc(O)cc2)NC(=O)[C@H](CC(N)=O)NC(=O)[C@H](CC(=O)O)NC(=O)CNC(=O)[C@H](CCCNC(=N)N)NC(=O)[C@@H]2CCCN2C(=O)[C@H](CCC(=O)O)NC1=O` [Cyclic peptide 36, KKKA-(Hcy)-EPRGDNYE(Dab(acetyl))D] (H-KKKA[hCys]EPRGDNYE[Dab]D-OH; linker 5-14 via X2), in series [1], the “Performance evaluation: Stability (residual rate of cyclic peptide after alkali treatment)” value was “A (The residual rate of the cyclic peptide is 70% or more.)”. For the same molecule, the Kd in series [2] was in the range of 50 to 100 nM.

As for `N=C(N)NCCC[C@@H]1NC(=O)[C@H](Cc2ccc(O)cc2)NC(=O)[C@H](CC(N)=O)NC(=O)[C@H](CC(=O)O)NC(=O)CNC(=O)[C@H](CCCNC(=N)N)NC(=O)[C@@H]2CCCN2C(=O)[C@H](CCC(=O)O)NC(=O)[C@@H](NC(=O)CNC(=O)[C@H](CCCCN)NC(=O)[C@H](CCCCN)NC(=O)[C@@H](N)CCCCN)CCSCC(=O)NCC[C@@H](C(=O)N[C@@H](CC(=O)O)C(=O)O)NC1=O` [Cyclic peptide 37, KKKG-(Hcy)-EPRGDNYR(Dab(acetyl))D] (H-KKKG[hCys]EPRGDNYR[Dab]D-OH; linker 5-14 via X2), the “Performance evaluation: Stability (residual rate of cyclic peptide after alkali treatment)” value in series [1] was “A (The residual rate of the cyclic peptide is 70% or more.)”. In series [2], the Kd was 50 to 100 nM.

For the molecule `N=C(N)NCCC[C@@H]1NC(=O)[C@H](Cc2ccc(O)cc2)NC(=O)[C@H](CC(N)=O)NC(=O)[C@H](CC(=O)O)NC(=O)CNC(=O)[C@H](CCCNC(=N)N)NC(=O)[C@@H]2CCCN2C(=O)[C@H](CCC(=O)O)NC(=O)[C@@H](NC(=O)[C@H](CC(=O)O)NC(=O)[C@H](CCCCN)NC(=O)[C@H](CCCCN)NC(=O)[C@@H](N)CCCCN)CCSCC(=O)NCC[C@@H](C(=O)N[C@@H](CC(=O)O)C(=O)O)NC1=O` [Cyclic peptide 38, KKKD-(Hcy)-EPRGDNYR(Dab(acetyl))D] (H-KKKD[hCys]EPRGDNYR[Dab]D-OH; linker 5-14 via X2), in series [1], the “Performance evaluation: Stability (residual rate of cyclic peptide after alkali treatment)” value is “A (The residual rate of the cyclic peptide is 70% or more.)”. Moreover, the Kd in series [2] lay in the range of 50 to 100 nM.

For `N=C(N)NCCC[C@@H]1NC(=O)[C@H](Cc2ccc(O)cc2)NC(=O)[C@H](CC(N)=O)NC(=O)[C@H](CC(=O)O)NC(=O)CNC(=O)[C@H](CCCNC(=N)N)NC(=O)[C@@H]2CCCN2C(=O)[C@H](CCC(=O)O)NC(=O)[C@@H](NC(=O)[C@H](CCC(=O)O)NC(=O)[C@H](CCCCN)NC(=O)[C@H](CCCCN)NC(=O)[C@@H](N)CCCCN)CCSCC(=O)NCC[C@@H](C(=O)N[C@@H](CC(=O)O)C(=O)O)NC1=O` [Cyclic peptide 39, KKKE-(Hcy)-EPRGDNYR(Dab(acetyl))D] (H-KKKE[hCys]EPRGDNYR[Dab]D-OH; linker 5-14 via X2), in series [1], the “Performance evaluation: Stability (residual rate of cyclic peptide after alkali treatment)” value is given as “A (The residual rate of the cyclic peptide is 70% or more.)”. The Kd in series [2] is below 50 nM.

As for `C[C@H](NC(=O)[C@H](CCCCN)NC(=O)[C@H](CCCCN)NC(=O)[C@@H](N)CCCCN)C(=O)N[C@H]1CCSCC(=O)NCC[C@@H](C(=O)NCC(=O)O)NC(=O)[C@H](CCCNC(=N)N)NC(=O)[C@H](Cc2ccc(O)cc2)NC(=O)[C@H](CC(N)=O)NC(=O)[C@H](CC(=O)O)NC(=O)CNC(=O)[C@H](CCCNC(=N)N)NC(=O)[C@@H]2CCCN2C(=O)[C@H](CCC(=O)O)NC1=O` [Cyclic peptide 40, KKKA-(Hcy)-EPRGDNYR(Dab(acetyl))G] (H-KKKA[hCys]EPRGDNYR[Dab]G-OH; linker 5-14 via X2), the “Performance evaluation: Stability (residual rate of cyclic peptide after alkali treatment)” value in series [1] is recorded as “A (The residual rate of the cyclic peptide is 70% or more.)”. In addition, the Kd in series [2] lay within 50 to 100 nM.

Consider `C[C@H](NC(=O)[C@@H]1CCNC(=O)CSCC[C@H](NC(=O)[C@H](C)NC(=O)[C@H](CCCCN)NC(=O)[C@H](CCCCN)NC(=O)[C@@H](N)CCCCN)C(=O)N[C@@H](CCC(=O)O)C(=O)N2CCC[C@H]2C(=O)N[C@@H](CCCNC(=N)N)C(=O)NCC(=O)N[C@@H](CC(=O)O)C(=O)N[C@@H](CC(N)=O)C(=O)N[C@@H](Cc2ccc(O)cc2)C(=O)N[C@@H](CCCNC(=N)N)C(=O)N1)C(=O)O` [Cyclic peptide 41, KKKA-(Hcy)-EPRGDNYR(Dab(acetyl))A] (H-KKKA[hCys]EPRGDNYR[Dab]A-OH; linker 5-14 via X2), for which, in series [1], the “Performance evaluation: Stability (residual rate of cyclic peptide after alkali treatment)” value was “A (The residual rate of the cyclic peptide is 70% or more.)”. Besides, the Kd in series [2] was 50 to 100 nM.

As to `C[C@H](NC(=O)[C@H](CCCCN)NC(=O)[C@H](CCCCN)NC(=O)[C@@H](N)CCCCN)C(=O)N[C@H]1CCSCC(=O)NCC[C@@H](C(=O)N[C@@H](CC(=O)O)C(=O)O)NC(=O)[C@H](CCCNC(=N)N)NC(=O)[C@H](Cc2ccc(O)cc2)NC(=O)[C@H](CC(N)=O)NC(=O)[C@H](CC(=O)O)NC(=O)CNC(=O)[C@H](CCCNC(=N)N)NC(=O)[C@@H]2CCCN2C(=O)[C@H](CCC(=O)O)NC1=O` [Cyclic peptide 42, KKKA-(Hcy)-EPRGDNYR(Dab(acetyl))D] (H-KKKA[hCys]EPRGDNYR[Dab]D-OH; linker 5-14 via X2), in series [1], the “Performance evaluation: Stability (residual rate of cyclic peptide after alkali treatment)” value is reported as “A (The residual rate of the cyclic peptide is 70% or more.)”. In addition, in series [2], the Kd lay in the range of 50 to 100 nM.
